# Test results reported in the supplement of paper PMC9663587.
# Tests used:
# [1] = compound: CC(=O)c1c(C)c2cnc(Nc3ccc(N4CCNCC4)cn3)nc2n(C2CCCC2)c1=O; test: increase in dead-cell fraction, 72 h; higher = more death;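 further: breast cancer cell lines in 384-well plates, stained with Hoechst plus LIVE/DEAD far red dye and imaged, cells above an LDR intensity threshold counted dead, Hoechst-negative corpses included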
# [2] = compound: CCN1CCN(Cc2ccc(Nc3ncc(F)c(-c4cc(F)c5nc(C)n(C(C)C)c5c4)n3)nc2)CC1; test: as above
# [3] = compound: T1, CN(C)C(=O)c1cc2cnc(Nc3ccc(N4CCNCC4)cn3)nc2n1C1CCCC1 [LEE011/Ribociclib]; test: as above
# [4] = compound: T2, CN1CC[C@H](c2c(O)cc(O)c3c(=O)cc(-c4ccccc4Cl)oc23)[C@H](O)C1 [Flavopiridol]; test: as above
# [5] = compound: CC(=O)c1c(C)c2cnc(Nc3ccc(N4CCN(CCOCCOCCOCCNC(=O)COc5cccc6c5C(=O)N(C5CCC(=O)NC5=O)C6=O)CC4)cn3)nc2n(C2CCCC2)c1=O [BSJ-03-123]; test: GR value, 72 h; higher = faster growth (1 = untreated, <0 = killing);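 further: breast cancer and non-malignant breast epithelial lines, nine half-log doses, viable cells counted by Hoechst and LIVE/DEAD dye imaging versus time-zero plates and DMSO controls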
# [6] = compound: CC(=O)c1c(C)c2cnc(Nc3ccc(N4CCNCC4)cn3)nc2n(C2CCCC2)c1=O; test: as above
# [7] = compound: CCN1CCN(Cc2ccc(Nc3ncc(F)c(-c4cc(F)c5nc(C)n(C(C)C)c5c4)n3)nc2)CC1; test: as above
# [8] = compound: CCOc1cc2ncc(C#N)c(Nc3ccc(OCc4ccccn4)c(Cl)c3)c2cc1NC(=O)/C=C/CN(C)C [Neratinib/HKI272]; test: as above
# [9] = compound: CCc1cnn2c(NCc3ccc[n+]([O-])c3)cc(N3CCCC[C@H]3CCO)nc12; test: as above
# [10] = compound: T1, LEE011/Ribociclib; test: as above
# [11] = compound: CN(C)C/C=C/C(=O)Nc1ccc(C(=O)Nc2cccc(Nc3ncc(Cl)c(-c4c[nH]c5ccccc45)n3)c2)cc1 [THZ1]; test: as above
# [12] = compound: T2, Flavopiridol; test: as above
cell line,measurement,setting,value
HCC202,increase in dead-cell fraction,[1]; 0.0003162 µM,0.0137
same,increase in dead-cell fraction,[1]; 0.001 µM,-0.0003
same,increase in dead-cell fraction,[1]; 0.003162 µM,0.0115
same,increase in dead-cell fraction,[1]; 0.01 µM,0.0189
same,increase in dead-cell fraction,[1]; 0.03162 µM,0.0085
same,increase in dead-cell fraction,[1]; 0.1 µM,0.0163
same,increase in dead-cell fraction,[1]; 0.3162 µM,0.0112
same,increase in dead-cell fraction,[1]; 1 µM,0.0306
same,increase in dead-cell fraction,[1]; 3.162 µM,0.0531
same,increase in dead-cell fraction,[2]; 0.001 µM,0.0017
same,increase in dead-cell fraction,[2]; 0.003162 µM,0.0045
same,increase in dead-cell fraction,[2]; 0.01 µM,0.0025
same,increase in dead-cell fraction,[2]; 0.03162 µM,0.0166
same,increase in dead-cell fraction,[2]; 0.1 µM,0.02
same,increase in dead-cell fraction,[2]; 0.3162 µM,0.0336
same,increase in dead-cell fraction,[2]; 1 µM,0.0207
same,increase in dead-cell fraction,[2]; 3.162 µM,0.049
same,increase in dead-cell fraction,[2]; 10 µM,0.0763
same,increase in dead-cell fraction,[3]; 0.001 µM,0.0107
same,increase in dead-cell fraction,[3]; 0.003162 µM,-0.0028
same,increase in dead-cell fraction,[3]; 0.01 µM,0.0035
same,increase in dead-cell fraction,[3]; 0.03162 µM,0.0081
same,increase in dead-cell fraction,[3]; 0.1 µM,0.0043
same,increase in dead-cell fraction,[3]; 0.3162 µM,0.0132
same,increase in dead-cell fraction,[3]; 1 µM,0.0255
same,increase in dead-cell fraction,[3]; 3.162 µM,0.0242
same,increase in dead-cell fraction,[3]; 10 µM,0.0292
same,increase in dead-cell fraction,[4]; 0.0001 µM,0.0217
same,increase in dead-cell fraction,[4]; 0.0003162 µM,-0.005
same,increase in dead-cell fraction,[4]; 0.001 µM,0.0178
same,increase in dead-cell fraction,[4]; 0.003162 µM,-0.0039
same,increase in dead-cell fraction,[4]; 0.01 µM,-0.0121
same,increase in dead-cell fraction,[4]; 0.03162 µM,0.0154
same,increase in dead-cell fraction,[4]; 0.1 µM,0.0477
same,increase in dead-cell fraction,[4]; 0.3162 µM,0.115
same,increase in dead-cell fraction,[4]; 1 µM,0.133
same,GR value,[5]; 0.001 µM,0.979 GR
same,GR value,[5]; 0.003162 µM,0.927 GR
same,GR value,[5]; 0.01 µM,0.777 GR
same,GR value,[5]; 0.03162 µM,0.873 GR
same,GR value,[5]; 0.1 µM,0.889 GR
same,GR value,[5]; 0.3162 µM,0.829 GR
same,GR value,[5]; 1 µM,0.666 GR
same,GR value,[5]; 3.162 µM,0.768 GR
same,GR value,[5]; 10 µM,0.0981 GR
same,GR value,[6]; 0.0003162 µM,0.895 GR
same,GR value,[6]; 0.001 µM,1 GR
same,GR value,[6]; 0.003162 µM,0.904 GR
same,GR value,[6]; 0.01 µM,0.913 GR
same,GR value,[6]; 0.03162 µM,0.889 GR
same,GR value,[6]; 0.1 µM,0.798 GR
same,GR value,[6]; 0.3162 µM,0.851 GR
same,GR value,[6]; 1 µM,0.753 GR
same,GR value,[6]; 3.162 µM,0.693 GR
same,GR value,[7]; 0.001 µM,0.929 GR
same,GR value,[7]; 0.003162 µM,0.906 GR
same,GR value,[7]; 0.01 µM,0.876 GR
same,GR value,[7]; 0.03162 µM,0.855 GR
same,GR value,[7]; 0.1 µM,0.809 GR
same,GR value,[7]; 0.3162 µM,0.627 GR
same,GR value,[7]; 1 µM,0.642 GR
same,GR value,[7]; 3.162 µM,0.545 GR
same,GR value,[7]; 10 µM,0.309 GR
same,GR value,[8]; 0.0003162 µM,1.05 GR
same,GR value,[8]; 0.001 µM,0.953 GR
same,GR value,[8]; 0.003162 µM,0.901 GR
same,GR value,[8]; 0.01 µM,0.709 GR
same,GR value,[8]; 0.03162 µM,0.491 GR
same,GR value,[8]; 0.1 µM,0.325 GR
same,GR value,[8]; 0.3162 µM,0.214 GR
same,GR value,[8]; 1 µM,0.194 GR
same,GR value,[8]; 3.162 µM,0.0934 GR
same,GR value,[9]; 0.0001 µM,0.96 GR
same,GR value,[9]; 0.0003162 µM,0.998 GR
same,GR value,[9]; 0.001 µM,1.06 GR
same,GR value,[9]; 0.003162 µM,1.03 GR
same,GR value,[9]; 0.01 µM,0.784 GR
same,GR value,[9]; 0.03162 µM,0.0982 GR
same,GR value,[9]; 0.1 µM,0.14 GR
same,GR value,[9]; 0.3162 µM,0.0849 GR
same,GR value,[9]; 1 µM,0.0949 GR
same,GR value,[10]; 0.001 µM,0.881 GR
same,GR value,[10]; 0.003162 µM,1.03 GR
same,GR value,[10]; 0.01 µM,1.03 GR
same,GR value,[10]; 0.03162 µM,0.891 GR
same,GR value,[10]; 0.1 µM,1.03 GR
same,GR value,[10]; 0.3162 µM,0.883 GR
same,GR value,[10]; 1 µM,0.833 GR
same,GR value,[10]; 3.162 µM,0.813 GR
same,GR value,[10]; 10 µM,0.829 GR
same,GR value,[11]; 0.0001 µM,0.915 GR
same,GR value,[11]; 0.0003162 µM,1.02 GR
same,GR value,[11]; 0.001 µM,0.961 GR
same,GR value,[11]; 0.003162 µM,0.866 GR
same,GR value,[11]; 0.01 µM,0.8 GR
same,GR value,[11]; 0.03162 µM,0.397 GR
same,GR value,[11]; 0.1 µM,0.154 GR
same,GR value,[11]; 0.3162 µM,0.0808 GR
same,GR value,[11]; 1 µM,0.0457 GR
same,GR value,[12]; 0.0001 µM,1.09 GR
same,GR value,[12]; 0.0003162 µM,1.05 GR
same,GR value,[12]; 0.001 µM,0.845 GR
same,GR value,[12]; 0.003162 µM,0.773 GR
same,GR value,[12]; 0.01 µM,0.976 GR
same,GR value,[12]; 0.03162 µM,0.893 GR
same,GR value,[12]; 0.1 µM,0.68 GR
same,GR value,[12]; 0.3162 µM,0.24 GR
same,GR value,[12]; 1 µM,0.0609 GR
